In article PMC11243685, “Synthesis and Enzymatic Evaluation of a Small Library of Substituted Phenylsulfonamido-Alkyl Sulfamates towards Carbonic Anhydrase II” (Molecules, 2024):

Key:
[1] = molecular target: T1, bovine carbonic anhydrase II (Bos taurus, UniProt P00921); assay: Enzymatic assay of bCA II inhibition, absorbance at 415 nm; type: biochemical; details: bCA II; 1 μM concentration of the inhibitor; triplicate with three technical replicas;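 also: enzyme is carbonic anhydrase II isolated from bovine erythrocytes, with its activity followed photometrically at 415 nm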
T1 construct: carbonic anhydrase II (bCAII, ≥3000 W-A units/mg from bovine erythrocytes) from Sigma; purchased Sigma (Taufkirchen, Germany); host or cells: isolated from bovine erythrocytes
T1 sequence (P00921 whole entry): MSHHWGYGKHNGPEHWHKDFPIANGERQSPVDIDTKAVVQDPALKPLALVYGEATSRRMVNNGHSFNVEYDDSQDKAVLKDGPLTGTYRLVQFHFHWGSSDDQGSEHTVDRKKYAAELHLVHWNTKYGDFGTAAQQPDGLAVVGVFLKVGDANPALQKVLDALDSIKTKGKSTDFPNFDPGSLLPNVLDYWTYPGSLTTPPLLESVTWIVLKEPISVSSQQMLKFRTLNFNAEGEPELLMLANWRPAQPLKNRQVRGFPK
Protocol: The enzymatic assays have been performed with carbonic anhydrase II (bCAII, ≥3000 W-A units/mg from bovine erythrocytes) from Sigma (Taufkirchen, Germany) using a BMG Labtech Spectrostar Omega apparatus (BMG Labtech, Ortenberg, Germany) measuring λ = 415 nm. Conditions have been described previously [72]. Ki and Ki′ values were determined from Lineweaver–Burk, Dixon and Cornish Bowden plots, respectively.

inhibition at 1 µM [1] [%]	melting point [°C]	Compound
43.1 ± 1.5	113 to 114	NS(=O)(=O)OCCCNS(=O)(=O)c1ccc(C2CCCCC2)cc1 [69b, 3-[(4-Cyclohexylphenyl)sulfonamido]propyl Sulfamate]
39.9 ± 0.4	64 to 66	NS(=O)(=O)OCCCNS(=O)(=O)c1ccccc1 [2b, 3-(Phenylsulfonamido]propyl Sulfamate]
